These results are taken from ChEMBL document CHEMBL1157539, “Thousands of chemical starting points for antimalarial lead identification” (Nature, 2010).

This assay relates to Plasmodium falciparum. Description: GSK_TCMDC: Inhibition of Plasmodium falciparum 3D7 in whole erythrocytes, using parasite LDH activity as an index of growth. It counts as functional, organism-based. Conditions: Plasmodium falciparum, 3D7.

The structures appear in SMILES notation.

`O=c1cc(-c2ccc3ccccc3c2)[nH]c2ccccc12` came in with an XC50 of 1160 nM.

For `OC1=C2C(=Nc3ccccc3SC2c2cccs2)c2ccccc21` (stereo not drawn), the XC50 amounted to 229 nM. The compound `COc1ccc2nccc([C@@H](O)CN3CCC(NC(=O)c4ccc(Cl)c(Cl)c4)CC3)c2c1` returned an XC50 of 614 nM.

Compound `Oc1cccc(CCNCCCCCCNCCc2ccc(Cl)cc2)c1` displayed an XC50 of 774 nM.

In the case of `C=C[C@H]1CN(CCCCCCC)CC[C@H]1C[C@@H](Cc1ccnc2ccc(OC)cc12)OC(=O)[C@](OC)(c1ccccc1)C(F)(F)F`, the XC50 amounted to 876 nM. With `CCCCCCNC(=O)C1Cc2c([nH]c3ccc(C)cc23)C2(CCN(CCc3ccccc3)CC2)N1` (stereo not drawn) the figure was 1270 nM; with `Cc1nc(-c2nc(NCc3ccc4c(c3)OCO4)ncc2-c2ccsc2)sc1C`, 103 nM. In the case of `OCC(CO)(CO)NCc1ccc2c3c(cccc13)-c1ccccc1-2`, the XC50 was determined as 1260 nM. With `O=C(c1cccc(-c2noc(C(F)(F)F)n2)c1)N1CCN(c2ccncc2)CC1` the figure was 233 nM; with `COc1cc(Cc2cnc(N)nc2N)cc(OCCCCC#N)c1OC`, 1040 nM. In turn, `Cc1ccc(Nc2nc(N)c3ccccc3n2)cc1` displayed an XC50 of 839 nM. With `Cc1cccc2nc(-c3ccc(-c4ccc(C(=O)NCCc5cn(C)cn5)cc4)s3)[nH]c12` the figure was 960 nM; with `Oc1ccc2[nH]c(-c3ccc(F)cc3F)nc2c1CN1CCC(O)(c2ccccc2)CC1`, 839 nM. `O=C(c1ccc(Cl)cc1)C1CCCN(C2CCN(CCc3ccccc3)CC2)C1` (stereo not drawn): the XC50 was 1450 nM.

`N#Cc1ccc2c(c1)CCN(CCC1CCC(NC(=O)c3cc4ccc(Cl)cc4[nH]3)CC1)C2` (stereo not drawn) registered an XC50 of 700 nM. Then `Cc1cc2nc(-c3ccc(/C=C/C(=O)NC4CCCCC4)cc3)[nH]c2cc1C`, with 1010 nM; and `CCCN1CCN(CCCNc2c3ccccc3nc3ccccc23)CC1`, with 547 nM; and `Cc1[nH]c(C)c(-c2ccc(Oc3ccc(C(F)(F)F)cc3)cc2)c(=O)c1Br`, with 206 nM. With `COc1ccc(-n2ccnc2SCC(=O)Nc2cc(C)ccc2C)c(OC)c1` the figure was 205 nM; with `CCOC(=O)c1c(-c2ccccc2)nc2c(sc3ccccc32)c1O`, 375 nM; with `Cc1ccccc1OCCCN1CCN(CC(c2ccc(F)cc2)N2CCN(C(C)C)CC2)CC1` (stereo not drawn), 1410 nM. Consider `COc1cc2nc(NCCc3ccccc3)nc(NC(C)c3ccccc3)c2cc1OC` (stereo not drawn), for which the XC50 came out at 281 nM. For `CC[C@H]1CN2CCc3cc(OC)c(OC)cc3[C@@H]2C[C@@H]1C[C@H]1NCCc2c1cc(OC)c(O)c2Cl`, the XC50 was 144 nM. Turning to `CC(=O)Nc1ccc(CN2CCC(CNC(=O)c3cc(-c4cccc(C(F)(F)F)c4)cs3)C2)cc1` (stereo not drawn), the XC50 turned out to be 1100 nM. The compound `O=C(Nc1cccc(C(F)(F)F)c1)c1cccc2nc(C(F)(F)F)[nH]c12` displayed an XC50 of 644 nM. Then `CCC(C)NCC(O)(c1ccc(Cl)cc1)c1ccc(Cl)cc1` (stereo not drawn), with 843 nM; and `CCOc1cc(CNCCCCCCNCc2cc(OCC)c(OCC)c3ccccc23)c2ccccc2c1OCC`, with 284 nM; and `COc1ccc2nccc([C@@H](O)CN3CCC(NCc4ccc5c(c4)N(C)C(=O)CO5)CC3)c2c1`, with 745 nM. Regarding `Cc1cccc2nc(-c3ccc(-c4ccc(CN5CCN(CCN6CCOCC6)CC5)cc4)s3)[nH]c12`, the XC50 stood at 245 nM. For the compound `O=C(NCc1ccc(C(=O)N2CCC(N3CCCCC3)CC2)cc1)c1cc(-c2cccc(C(F)(F)F)c2)ccc1O`, the XC50 is 817 nM. `COc1cc(-c2ccc(-c3cnc(N)nc3OC)[nH]2)cc(OC)c1OC` returned an XC50 of 729 nM. Turning to `Cc1cc(-c2ccnc(Nc3cccc(C#N)c3)n2)cc(C)c1O`, the XC50 was found to be 924 nM. `Nc1nccc2ccc(-c3ccc(OCc4ccccc4)cc3)cc12` showed an XC50 of 222 nM. With `CCOc1cc(C)ccc1N(C1CCN(CCCCNC(=O)c2ccc(-c3ccc(C(F)(F)F)cc3)cc2)CC1)S(=O)(=O)c1ccccc1` the figure was 1020 nM. With `N#Cc1ccc2[nH]cc(-c3cn4cc(SC5CCCC5)ccc4n3)c2c1` the figure was 942 nM.

Take `CCN1CCCC(Nc2ccnc3cc4ccccc4cc23)C1` (stereo not drawn): the XC50 was found to be 104 nM. For the compound `CC(C)(C)c1ccc(CNC(=O)c2cc(CNC3CCNC3)ccc2O)cc1` (stereo not drawn), the XC50 amounted to 805 nM. The compound `CC[C@H]1CN2CC[C@H]1C[C@H]2[C@H](O)c1cc(N2CCCC2)nc2ccc(OC)cc12` registered an XC50 of 44.8 nM. For `Cc1nc2ccccc2n1C1CC2CCC(C1)N2CCCC1(c2ccccc2)CCN(C(=O)OCc2ccccc2)CC1` (stereo not drawn), the XC50 stood at 998 nM. In turn, `CCc1cc(N2CCN(c3ccccc3F)CC2)nc(SCc2ccc(C(=O)NC3CC3)o2)n1` displayed an XC50 of 892 nM. `Cc1c(-c2cccc(C(C)(C)NC3CCN(Cc4ccccc4)CC3)c2)cnc(N)c1C` had an XC50 of 579 nM. Take `Cc1ccc(Nc2nc(C)cc(NCc3ccc(-n4ccnc4)cc3)n2)cc1`: the XC50 came to 1010 nM. With `Cc1ccc(CNC(=O)[C@H](CCCN)Nc2nc(NCC3CCCCC3)ncc2C)cc1` the figure was 987 nM; with `COc1ccc2nccc(N3CCN(CCNCc4ccc5c(n4)NC(=O)CO5)CC3)c2n1`, 885 nM. `CCN(CC)CCNc1ccc(Nc2ccnc3cc4ccccc4cc23)cc1`: the XC50 is 197 nM. With `Cc1cc(=NN=Cc2cccc(Cl)c2)c2cc(F)ccc2[nH]1` the figure was 759 nM; with `O=C(NCCCCN1CCN(c2nsc3ccccc23)CC1)c1ccccc1C(=O)NCCCCN1CCN(c2nsc3ccccc23)CC1`, 887 nM; with `COc1cc2ncnc(Nc3ccc(OCc4ccccc4Br)c(Cl)c3)c2cc1OC`, 1280 nM. In the case of `CCc1cn2c3c(cc(C(=O)N[C@@H](Cc4ccccc4)[C@H](O)CN[C@@H](C)CC)cc13)N(C)S(=O)(=O)CC2`, the XC50 came to 74.5 nM. Then `CCOc1cc(C2C(C(=O)OC(C)C)=C(C)NC3=C2C(=O)CC(c2ccc(Cl)cc2)C3)ccc1OC(C)=O` (stereo not drawn), with 932 nM. With `Cc1ccc(NC(=O)c2cccc(CN3CCCN(CC4CCCCC4)CC3)c2)cc1F` the figure was 596 nM; with `Nc1nc(N)c2c(ccc3c2ccn3Cc2ccc(OCc3ccccc3)cc2)n1`, 933 nM. With `CNC(=O)CNC(=O)COc1cccc2ccccc12` the figure was 226 nM. On to `CS(=O)(=O)CCNCc1cccc(-c2cc3c(Nc4ccc5c(cnn5Cc5ccccc5)c4)ncnc3s2)c1`, for which the XC50 came out at 553 nM. Take `O=C(/C=C/c1ccc(Cl)c(Cl)c1)N1CCC(CN2CCC(Cc3c[nH]c4ccccc34)CC2)CC1`: the XC50 stood at 674 nM. For `Cc1cc(C)c2ncc(C(=O)O)c(O)c2c1`, the XC50 came to 878 nM. Then `CC1C(c2cccc(Cl)c2)OCC(C)(C)N1C(=O)CCN1CCCCC1` (stereo not drawn), with 923 nM; and `CN1CCC(N(C)c2nccc(N3CCN(Cc4cncn4Cc4ccccc4)CC3)n2)CC1`, with 704 nM; and `OCCN1CCN(Cc2ccc(-c3ccc(-c4nc5cc(C(F)(F)F)ccc5[nH]4)s3)cc2)CC1`, with 379 nM. As to `Cc1ccc2c(=O)cc(CCc3cccc(F)c3F)n(CC(=O)N(Cc3ccc(-c4ccc(C(F)(F)F)cc4)cc3)C3CCN(C(C)C)CC3)c2n1`, the XC50 stood at 776 nM.

`CCCOc1cccc(C(=O)N[C@@H](Cc2ccccc2)[C@H](O)CNCc2cccc(OC)c2)c1` had an XC50 of 741 nM.

Take `O=C(CN1CCC2(CCC1=O)CC(=O)c1ccccc1O2)NCCN1CCOCC1` (stereo not drawn): the XC50 was 221 nM. In the case of `Cc1cc(N[C@@H](Cc2ccccc2)C(=O)NCCCOC(C)C)nc(NCC2CCCCC2)n1`, the XC50 was determined as 875 nM.
